Source: patent publication US20240344241A1, “PROTEINACEOUS MOLECULES AND USES THEREFOR” (THE UNIVERSITY OF QUEENSLAND, priority 2021, published 2024)
Read-outs that look alike come from different tables or passages of the source. Bridge positions count the residues as written; N and C are the ends. Ends that are not written are not given here. Peptide text beside a SMILES is read from it.

Experiments:
Rec. human matriptase = target: T1, Rec. human matriptase (Homo sapiens, UniProt Q9Y5Y6); assay: Matriptase inhibition assay; assay type: biochemical
T1 construct: purchased R&D Systems
T1 sequence (Q9Y5Y6 615-855 limits assumed): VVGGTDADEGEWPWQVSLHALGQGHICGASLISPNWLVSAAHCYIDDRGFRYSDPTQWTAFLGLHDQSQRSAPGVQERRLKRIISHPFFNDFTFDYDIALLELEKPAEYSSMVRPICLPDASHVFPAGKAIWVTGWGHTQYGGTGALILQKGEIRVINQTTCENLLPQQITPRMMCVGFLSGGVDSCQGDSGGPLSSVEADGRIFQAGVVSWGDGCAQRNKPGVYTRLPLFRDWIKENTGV
Experimental: (§1) The activity of acyclic and cyclic MCoFx1-5 and analogues thereof was assessed in competitive inhibition assays, as previously described in Swedberg et al. (2016) J Med Chem, 59: 7287-7292. Human β-FXIIa was obtained from Molecular Innovations, together with human FXa, human FXIa, human α-thrombin, and human plasma kallikrein. Human cationic trypsin and human plasmin were obtained from Sigma-Aldrich, and recombinant human matriptase was sourced from R&D Systems. Recombinant human urokinase (uPA) and recombinant human tissue plasminogen activator (tPA) were expressed in Expi293 cells, as previously described in Li et al. (2019) Chembiochem, 20: 46-50. FXIIa inhibition assays were performed in clear, low-binding 96-well plates using 250 μL (final volume) of assay buffer (0.1 M Tris-HCl pH 8.0, 0.1 M NaCl, 10 mM CaCl2 and 0.005% Triton X-100). Inhibitors were serially diluted and incubated with 10 nM FXIIa at room temperature to reach equilibrium. After adding 100 μM Ac-QRFR-pNA substrate (KM=162 μM), enzymatic activity was measured by monitoring release of the pNA moiety using a TECAN infinite M1000 Pro plate reader (A=405 nm, reading interval, 10 s; assay time course, 7 min). Assays were conducted in three times in duplicate. Substrate kinetic constants (Michaelis-Menten) and inhibition constants (Morrison K) were determined by non-linear regression using Prism 7 (GraphPad). Selectivity assays with off-target proteases were performed in a similar way, except that different concentrations of enzyme and substrate were used, as indicated in Table 16. For assays using a fluorescent substrate (peptide-4-methylcoumaryl-7-amide, MCA), black low-binding 96-well plates were used and activity was measured using a TECAN infinite M1000 pro plate reader (λex 360 nm, λem 460 nm, reading interval, 30 s; assay time course, 5-30 min).

Human thrombin = target: T2, Human thrombin (Homo sapiens, UniProt P00734); assay: Thrombin inhibition assay; assay type: biochemical
T2 construct: Human β-FXIIa was obtained from Molecular Innovations, together with human FXa, human FXIa, human α-thrombin, and human plasma kallikrein; purchased Molecular Innovations; host or cells: purified from human plasma
Experimental: as §1

Human plasma kallikrein = target: T3, Human plasma kallikrein (Homo sapiens, UniProt P03952); assay: Plasma kallikrein inhibition assay; assay type: biochemical
T3 construct: Human β-FXIIa was obtained from Molecular Innovations, together with human FXa, human FXIa, human α-thrombin, and human plasma kallikrein; purchased Molecular Innovations; host or cells: purified from human plasma
Experimental: as §1

Human trypsin = target: T4, Human trypsin (Homo sapiens, UniProt P07477); assay: Trypsin competitive inhibition assay; assay type: biochemical
T4 construct: purchased Sigma-Aldrich; host or cells: purified from human tissue
Experimental: as §1

Human FXIa = target: T5, Human FXIa (Homo sapiens, UniProt P03951); assay: FXIa inhibition assay; assay type: biochemical
T5 construct: Human β-FXIIa was obtained from Molecular Innovations, together with human FXa, human FXIa, human α-thrombin, and human plasma kallikrein; purchased Molecular Innovations; host or cells: purified from human plasma
Experimental: as §1

Human plasmin = target: T6, Human plasmin (Homo sapiens, UniProt P00747); assay: Plasmin inhibition assay; assay type: biochemical
T6 construct: Human cationic trypsin and human plasmin were obtained from Sigma-Aldrich, and recombinant human matriptase was sourced from R&D Systems; purchased Sigma-Aldrich; host or cells: purified from human plasma
Experimental: as §1

Rec. human tPA = target: T7, Rec. human tPA (Homo sapiens, UniProt P00750); assay: tPA inhibition assay; assay type: biochemical
T7 construct: made in house; host or cells: Expi293 cells
Experimental: as §1

Human β-FXIIa = target: T8, Human β-FXIIa (Homo sapiens, UniProt P00748); assay: FXIIa competitive inhibition assay, colorimetric substrate Ac-QRFR-pNA; assay type: biochemical
T8 construct: Human β-FXIIa was obtained from Molecular Innovations, together with human FXa, human FXIa, human α-thrombin, and human plasma kallikrein; purchased Molecular Innovations; host or cells: purified from human plasma
Experimental: as §1

Human FXa = target: T9, Human FXa (Homo sapiens, UniProt P00742); assay: FXa inhibition assay; assay type: biochemical
T9 construct: Human β-FXIIa was obtained from Molecular Innovations, together with human FXa, human FXIa, human α-thrombin, and human plasma kallikrein; purchased Molecular Innovations; host or cells: purified from human plasma
Experimental: as §1

Rec. human uPA = target: T10, Rec. human uPA (Homo sapiens, UniProt P00749); assay: uPA inhibition assay; assay type: biochemical
T10 construct: made in house; host or cells: Expi293 cells
Experimental: as §1

[1] = target: T11, biotinylated human β-FXIIa (Homo sapiens, UniProt P00748); assay: Surface plasmon resonance binding to FXIIa
T11 construct: purchased Molecular Innovations
Experimental: Binding kinetics of each peptide towards biotinylated human β-FXIIa (Molecular Innovations) and non-labelled zymogen FXII (Haematologic Technologies) were determined using a Biacore T200 machine (Cytiva). For β-FXIIa binding measurements, the running buffer was HBS-EP+(10 mM HEPES, 150 mM NaCl, 3 mM EDTA and 0.05% (v/v) surfactant P20, pH 7.4). Biotinylated β-FXIIa was immobilized on a Sensor Chip CAP (Cytiva) using Biotin CAPture Reagent (Cytiva). A series of concentrations of each peptide were injected as analyte and the binding kinetics were modelled using a 1:1 binding model. Regeneration of sensor surface was performed after each measurement cycle. For FXII binding measurements, the running buffer was PBST (137 mM NaCl, 2.7 mM KCl, 10 mM Na2HPO4, 1.8 mM KH2PO4, 0.05% Tween-20). Non-labelled FXII was immobilized on a Sensor Chip CM5 (Cytiva) using Amine Coupling Kit (Cytiva), achieving a final immobilization level of 2500 RU. Each peptide was flowed through immobilized FXII at 5 μM for 60 s and allowed dissociation for 150 s.

bovine trypsin = target: T12, bovine trypsin (Bos taurus, UniProt P00760); assay: Surface plasmon resonance binding to trypsin
T12 sequence (P00760 24-246): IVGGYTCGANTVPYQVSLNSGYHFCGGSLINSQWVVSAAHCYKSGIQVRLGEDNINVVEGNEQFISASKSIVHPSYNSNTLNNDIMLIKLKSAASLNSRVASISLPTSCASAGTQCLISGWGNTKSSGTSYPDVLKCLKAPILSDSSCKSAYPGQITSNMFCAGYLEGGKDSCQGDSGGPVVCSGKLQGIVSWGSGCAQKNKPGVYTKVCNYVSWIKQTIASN

Stability in human serum = assay: Stability in human serum
Experimental: Briefly, peptides were incubated at a final concentration of 30 μM in human serum (human male AB serum, Sigma-Aldrich) at 37° C. for 0, 1, 12 and 24 h. The reaction was stopped at designated times, with the serum proteins being denatured by addition of two volumes of acetonitrile (v/v). The samples were then spun at 17,000 g for 10 min and the amount of peptide in the supernatant was quantified using analytical HPLC. The percentage of peptide remaining at 1, 12 and 24 h was calculated using the area of the serum-treated peptide peak from 0 h as 100%.

[2] = Table 8, cyclic form, read-out: KD (nM) Trypsin Cyclic
[3] = Table 7, FXIIa, cyclic form of the peptide, read-out: Ki (nM) Cyclic

T11 sequence (P00748 373-615 limits assumed, other chains not shown): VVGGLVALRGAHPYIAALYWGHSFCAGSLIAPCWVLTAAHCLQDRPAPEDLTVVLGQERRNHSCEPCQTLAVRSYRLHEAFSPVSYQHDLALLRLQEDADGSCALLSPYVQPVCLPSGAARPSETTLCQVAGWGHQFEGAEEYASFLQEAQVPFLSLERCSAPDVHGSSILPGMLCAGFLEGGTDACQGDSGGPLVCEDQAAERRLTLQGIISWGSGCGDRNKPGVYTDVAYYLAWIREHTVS
T8 sequence (P00748 373-615 limits assumed, other chains not shown): as above
T5 sequence (P03951 388-625 limits assumed): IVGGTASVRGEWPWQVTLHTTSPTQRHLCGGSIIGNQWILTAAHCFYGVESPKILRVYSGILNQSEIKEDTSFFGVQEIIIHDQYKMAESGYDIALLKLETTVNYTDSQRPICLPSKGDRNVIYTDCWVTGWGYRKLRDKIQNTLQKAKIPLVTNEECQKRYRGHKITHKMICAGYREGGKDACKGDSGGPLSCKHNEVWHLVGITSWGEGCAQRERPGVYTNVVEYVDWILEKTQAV
T5 sequence (P03951 19-387 partner limits assumed): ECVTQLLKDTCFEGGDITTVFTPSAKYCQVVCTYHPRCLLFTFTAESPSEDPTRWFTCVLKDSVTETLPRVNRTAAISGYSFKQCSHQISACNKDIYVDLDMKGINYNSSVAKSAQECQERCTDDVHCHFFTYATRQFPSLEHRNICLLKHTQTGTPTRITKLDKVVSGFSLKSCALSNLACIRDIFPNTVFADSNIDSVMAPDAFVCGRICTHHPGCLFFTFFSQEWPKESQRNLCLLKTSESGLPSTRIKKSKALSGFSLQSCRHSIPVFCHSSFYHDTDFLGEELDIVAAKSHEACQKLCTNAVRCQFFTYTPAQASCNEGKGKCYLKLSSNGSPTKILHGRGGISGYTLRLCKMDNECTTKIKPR
T7 sequence (P00750 36-562): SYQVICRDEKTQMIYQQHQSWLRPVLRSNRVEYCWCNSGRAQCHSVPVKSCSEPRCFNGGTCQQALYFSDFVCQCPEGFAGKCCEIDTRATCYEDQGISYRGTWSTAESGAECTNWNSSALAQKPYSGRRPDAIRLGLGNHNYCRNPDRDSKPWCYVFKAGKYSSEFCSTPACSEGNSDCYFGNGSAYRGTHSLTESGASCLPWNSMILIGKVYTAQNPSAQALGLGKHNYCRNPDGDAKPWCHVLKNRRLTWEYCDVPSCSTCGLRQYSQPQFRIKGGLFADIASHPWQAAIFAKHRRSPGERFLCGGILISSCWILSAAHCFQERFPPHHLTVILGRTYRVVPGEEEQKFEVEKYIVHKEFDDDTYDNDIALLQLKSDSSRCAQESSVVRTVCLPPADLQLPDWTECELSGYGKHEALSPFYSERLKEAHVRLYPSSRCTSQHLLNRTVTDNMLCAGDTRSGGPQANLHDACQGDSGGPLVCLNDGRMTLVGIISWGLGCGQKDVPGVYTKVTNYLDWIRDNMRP
T9 sequence (P00742 235-488 limits assumed): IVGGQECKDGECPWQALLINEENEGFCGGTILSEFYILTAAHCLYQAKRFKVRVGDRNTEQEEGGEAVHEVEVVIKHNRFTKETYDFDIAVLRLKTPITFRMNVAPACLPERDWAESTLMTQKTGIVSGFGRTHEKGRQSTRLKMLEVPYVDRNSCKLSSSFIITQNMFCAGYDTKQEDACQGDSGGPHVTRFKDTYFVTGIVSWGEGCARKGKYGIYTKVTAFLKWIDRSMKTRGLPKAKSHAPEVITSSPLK
T9 sequence (P00742 41-179 partner limits assumed): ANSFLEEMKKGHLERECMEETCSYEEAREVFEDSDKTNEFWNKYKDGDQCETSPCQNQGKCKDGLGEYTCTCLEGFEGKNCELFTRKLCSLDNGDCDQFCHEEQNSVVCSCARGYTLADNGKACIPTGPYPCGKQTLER
T3 sequence (P03952 391-638 limits assumed): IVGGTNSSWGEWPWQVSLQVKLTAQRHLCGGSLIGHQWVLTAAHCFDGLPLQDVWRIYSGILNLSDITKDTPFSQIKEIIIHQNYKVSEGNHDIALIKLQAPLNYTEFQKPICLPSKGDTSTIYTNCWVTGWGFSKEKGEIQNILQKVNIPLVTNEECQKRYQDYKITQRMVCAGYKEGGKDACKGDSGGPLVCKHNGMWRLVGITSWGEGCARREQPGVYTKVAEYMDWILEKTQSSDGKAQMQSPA
T3 sequence (P03952 20-390 partner limits assumed): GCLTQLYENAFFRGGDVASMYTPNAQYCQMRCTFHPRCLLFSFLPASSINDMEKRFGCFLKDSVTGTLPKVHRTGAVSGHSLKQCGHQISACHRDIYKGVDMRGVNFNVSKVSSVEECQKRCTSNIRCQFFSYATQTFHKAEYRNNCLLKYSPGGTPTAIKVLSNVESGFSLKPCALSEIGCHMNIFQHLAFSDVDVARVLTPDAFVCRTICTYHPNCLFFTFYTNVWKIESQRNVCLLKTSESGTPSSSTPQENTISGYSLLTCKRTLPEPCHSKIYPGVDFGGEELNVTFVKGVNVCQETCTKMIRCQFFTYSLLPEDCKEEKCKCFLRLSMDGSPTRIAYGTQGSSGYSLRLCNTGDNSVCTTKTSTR
T6 sequence (P00747 581-810 limits assumed): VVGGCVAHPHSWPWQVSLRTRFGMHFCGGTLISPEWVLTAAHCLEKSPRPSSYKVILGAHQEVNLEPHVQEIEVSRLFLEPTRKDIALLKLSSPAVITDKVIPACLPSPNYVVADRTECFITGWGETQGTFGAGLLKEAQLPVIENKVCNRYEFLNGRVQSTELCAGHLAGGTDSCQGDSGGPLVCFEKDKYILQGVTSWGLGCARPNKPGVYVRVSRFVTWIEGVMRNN
T6 sequence (P00747 97-580 partner limits assumed): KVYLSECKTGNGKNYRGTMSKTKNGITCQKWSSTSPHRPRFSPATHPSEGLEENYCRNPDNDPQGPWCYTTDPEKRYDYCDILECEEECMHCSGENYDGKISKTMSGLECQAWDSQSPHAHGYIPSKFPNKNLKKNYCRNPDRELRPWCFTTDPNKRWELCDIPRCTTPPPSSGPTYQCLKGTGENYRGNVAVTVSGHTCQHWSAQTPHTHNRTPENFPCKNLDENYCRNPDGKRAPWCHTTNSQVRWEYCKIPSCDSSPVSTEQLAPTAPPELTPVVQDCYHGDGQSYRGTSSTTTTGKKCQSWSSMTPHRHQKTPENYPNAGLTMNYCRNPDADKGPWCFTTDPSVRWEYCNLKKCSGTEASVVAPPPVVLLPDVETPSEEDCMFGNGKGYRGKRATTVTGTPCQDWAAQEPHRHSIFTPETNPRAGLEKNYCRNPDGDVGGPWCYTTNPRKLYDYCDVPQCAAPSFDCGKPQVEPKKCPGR

## CC[C@H](C)[C@@H]1NC(=O)[C@@H]2CSSC[C@@H]3NC(=O)[C@H](C(C)C)NC(=O)CNC(=O)CNC(=O)[C@H](CC(=O)O)NC(=O)[C@H](CO)NC(=O)CNC(=O)[C@H](CO)NC(=O)CNC(=O)[C@@H]4CSSC[C@H](NC(=O)[C@H](CC(=O)O)NC(=O)[C@H](CO)NC(=O)[C@H](CC(=O)O)NC(=O)[C@H](CCCNC(=N)N)NC(=O)[C@H](CCCNC(=N)N)NC(=O)[C@H](CSSC[C@H](NC1=O)C(=O)N[C@@H](CCCNC(=N)N)C(=O)N[C@@H](C)C(=O)N[C@@H]([C@@H](C)O)C(=O)N[C@@H](CCCNC(=N)N)C(=O)N[C@@H](Cc1ccccc1)C(=O)N4)NC(=O)[C@H](CCCCN)NC(=O)[C@H](CCCCN)NC(=O)[C@H](CC(C)C)NC(=O)[C@H]([C@@H](C)CC)NC(=O)[C@H](CCCCN)NC(=O)[C@@H]1CCCN1C3=O)C(=O)N1CCC[C@H]1C(=O)NCC(=O)N[C@@H](C)C(=O)N2 [cMCoTI-fxL5] (cyclo(ACICRATRFCGSGSDGGVCPKILKKCRRDSDCPG); disulfide 2-19, 4-26, 10-32)
Rec. human matriptase
  Ki: 17 nM
Human thrombin
  IC50: > 5000 nM
Human thrombin; read-out: percent inhibition Thrombin
  inhibition at 5 µM: 3%
Human plasma kallikrein
  IC50: > 5000 nM
Human plasma kallikrein; read-out: percent inhibition Plasma kallikrein
  inhibition at 5 µM: 0%
Human trypsin
  Ki: 0.08 nM
Human FXIa
  IC50: > 5000 nM
Human FXIa; read-out: percent inhibition FXIa
  inhibition at 5 µM: 1%
Human plasmin
  Ki: 31 nM
Rec. human tPA
  IC50: > 5000 nM
Rec. human tPA; read-out: percent inhibition tPA
  inhibition at 5 µM: 1%
Human β-FXIIa
  Ki: 66 nM
Human FXa
  IC50: > 5000 nM
Human FXa; read-out: percent inhibition FXa
  inhibition at 5 µM: 0%
Rec. human uPA
  IC50: > 5000 nM
Rec. human uPA; read-out: percent inhibition uPA
  inhibition at 5 µM: 0%

## CC[C@H](C)[C@H](NC(=O)CNC(=O)CNC(=O)[C@@H](N)CC(=O)O)C(=O)N[C@H]1CSSC[C@@H]2NC(=O)[C@H](C)NC(=O)CNC(=O)[C@@H]3CCCN3C(=O)[C@@H]3CSSC[C@@H](C(=O)NCC(=O)N[C@@H](CO)C(=O)NCC(=O)N[C@@H](CO)C(=O)O)NC(=O)[C@H](Cc4ccc(O)cc4)NC(=O)[C@H]([C@@H](C)O)NC(=O)[C@H](CCCNC(=N)N)NC(=O)[C@H](CCCNC(=N)N)NC(=O)[C@H]([C@@H](C)CC)NC(=O)[C@H](CSSC[C@H](NC(=O)[C@H](Cc4ccc(O)cc4)NC(=O)[C@H](C(C)C)NC(=O)[C@H](CC(C)C)NC(=O)[C@H]([C@@H](C)CC)NC(=O)[C@H](CCCNC(=N)N)NC(=O)[C@@H]4CCCN4C1=O)C(=O)N[C@@H](CCCNC(=N)N)C(=O)N[C@@H](CCCNC(=N)N)C(=O)N[C@@H](CC(=O)O)C(=O)N[C@@H](CO)C(=O)N[C@@H](CC(=O)O)C(=O)N3)NC(=O)[C@H]([C@@H](C)CC)NC2=O [MCoFx2 acyclic] (H-DGGICPRILVYCRRDSDCPGACICIRRTYCGSGS-OH; disulfide 5-22, 12-24, 18-30)
[1]
  Kd: 45.4 ± 2.9 nM
Bovine trypsin
  Kd: < 0.1 nM
Human β-FXIIa
  Ki: 73 ± 3 nM

## EAIYAAPFAKKK [reference compound]
Stability in human serum
  time to degradation in human serum: ≤ 1 h

## CC[C@H](C)[C@@H]1NC(=O)[C@@H]2CSSC[C@@H]3NC(=O)[C@H](CCCNC(=N)N)NC(=O)CNC(=O)CNC(=O)[C@H](CC(=O)O)NC(=O)[C@H](CO)NC(=O)CNC(=O)[C@H](CO)NC(=O)CNC(=O)[C@@H]4CSSC[C@H](NC(=O)[C@H](CC(=O)O)NC(=O)[C@H](CO)NC(=O)[C@H](CC(=O)O)NC(=O)[C@H](CCCNC(=N)N)NC(=O)[C@H](CCCNC(=N)N)NC(=O)[C@H](CSSC[C@H](NC1=O)C(=O)N[C@@H](C)C(=O)N[C@@H](CCCNC(=N)N)C(=O)NCC(=O)NCC(=O)N[C@@H](CC(C)C)C(=O)N4)NC(=O)[C@H](Cc1c[nH]c4ccccc14)NC(=O)[C@H](CCCNC(=N)N)NC(=O)[C@H](CC(C)C)NC(=O)[C@H](CC(C)C)NC(=O)[C@H](CCCNC(=N)N)NC(=O)[C@@H]1CCCN1C3=O)C(=O)N1CCC[C@H]1C(=O)NCC(=O)N[C@@H](C)C(=O)N2 [MCoFx3 cyclic] (cyclo(ACICARGGLCGSGSDGGRCPRLLRWCRRDSDCPG); disulfide 2-19, 4-26, 10-32)
[1]; Table 8, cyclic form, read-out: KD (nM) FXIIa Cyclic
  Kd: 22.8 ± 1.6 nM
Bovine trypsin; [2]
  Kd: 2.72 nM
Human β-FXIIa; [3]
  Ki: 75 ± 3 nM

## CC[C@H](C)[C@@H]1NC(=O)CNC(=O)CNC(=O)[C@H](CC(=O)O)NC(=O)[C@H](CO)NC(=O)CNC(=O)[C@H](CO)NC(=O)CNC(=O)[C@@H]2CSSC[C@@H]3NC(=O)[C@H](CC(=O)O)NC(=O)[C@H](CO)NC(=O)[C@H](CC(=O)O)NC(=O)[C@H](CCCNC(=N)N)NC(=O)[C@H](CCCNC(=N)N)NC(=O)[C@@H]4CSSC[C@H](NC(=O)[C@H]([C@@H](C)CC)NC(=O)[C@H](CSSC[C@H](NC1=O)C(=O)N1CCC[C@H]1C(=O)N[C@@H](CCCNC(=N)N)C(=O)N[C@@H]([C@@H](C)CC)C(=O)N[C@@H](CC(C)C)C(=O)N[C@@H](C(C)C)C(=O)N[C@@H](Cc1ccc(O)cc1)C(=O)N4)NC(=O)[C@H](C)NC(=O)CNC(=O)[C@@H]1CCCN1C3=O)C(=O)N[C@@H]([C@@H](C)CC)C(=O)N[C@@H](CCCNC(=N)N)C(=O)N[C@@H](CCCNC(=N)N)C(=O)N[C@@H]([C@@H](C)O)C(=O)N[C@@H](Cc1ccc(O)cc1)C(=O)N2 [MCoFx2 cyclic] (cyclo(ACICIRRTYCGSGSDGGICPRILVYCRRDSDCPG); disulfide 2-19, 4-26, 10-32)
[1]; Table 7, FXIIa, cyclic form of the peptide, read-out: KD (nM) Cyclic
  Kd: 10 nM
Bovine trypsin; [2]
  Kd: < 0.1 nM
Human β-FXIIa; [3]
  Ki: 12 ± 0.7 nM
